Measured values as given in patent publication US12377069B2, “Compounds, compositions, methods of using, and methods for preparing compounds” (UNIVERSITY OF LOUISVILLE RESEARCH FOUNDATION, INC., priority 2018, dated 2025).

Assays:
Nrf2^−/− mice = assay: TNBS-induced colitis in Nrf2^−/− mice; assay type: in vivo, mouse; conditions: 20 mg/kg every 12 h post TNBS
Procedure: FIG. 7: UroA/UAS03 utilize Nrf2 pathways to mitigate colitis. (A-F) Colitis was induced using TNBS in C57BL/6 (WT) and Nrf2^−/− mice (n=4-5/group 7-8 week old age). Mice were treated with Veh or UroA/UAS03 (20 mg/kg bodyweight) every 12 h post TNBS administration ending at 72 h. Representative data from two independent experiments is shown. (A) TNBS-induced colitis experimental design and treatment regimen. (B) Percent body weight loss (No TNBS− Solid black line; Veh+TNBS− Solid red line; UroA+TNBS− Solid blue line; UAS03+TNBS− Solid purple line), (C) representative colon images, (D) colon lengths, (E) gut permeability, (F) serum levels of IL-6 and TNF-α were determined. Statistical analysis was performed (unpaired t-test) using Graphpad Prism software. Error bars, ±SEM ***p<0.001; **p<0.01 *p<0.05.
2,4,6-Trinitrobenzenesulfonic acid (TNBS)-induced colitis: Male C57BL/6 or Nrf2^−/− mice (6-8 week old age mice) were anesthetized with ketamine/xylazine (100 mg/12.5 mg/kg IP) mixture and administered with single dose of TNBS (2.5 mg/mice; Sigma Aldrich, USA) in 50% ethanol. After administration of TNBS, mice were held upside down for 30-60 sec to ensure proper distribution of TNBS in the colon. Control group received 50% ethanol without TNBS. Mice with TNBS were randomly divided into three groups, viz. vehicle (0.25% sodium carboxymethylcellulose (CMC)), UroA and UAS03. UroA or UAS03 was resuspended in 0.25% sodium-CMC at desired concentrations. The mice were given orally Veh or UroA or UAS03 in 100 μl at desired concentrations (4 or 20 mg/kg/body weight). The treatment started after 12 hours of TNBS administration and every 12 hours thereafter up to 72 hours. The experiment was terminated post 60 h TNBS, where AhR^−/− mice were involved. In some experiments, we treated only once at post 12 h TNBS administration. TNBS administered and control mice were euthanized for tissue and plasma collection after 80 hours of TNBS/ethanol treatment. Mice were examined for colitis phenotype.

5FUR HCT116 cells = assay: EMT markers in colon cancer cells (Western blot); assay type: cell-based; conditions: for EMT markers ZO-1, E-Cadherin, Snail, β-catenin: 5FUR HCT116, 72 h, in the presence of 5FU
Procedure: FIG. 41: Western blot analysis of EMT markers in 5FUR HCT116 cells in treated (72 h) with 5FU in the presence or absence of UroA/UAS03.
UroA/UAS03 treatment reduce epithelial-mesenchymal transitions (EMT) signature in 5FU resistant (5FU R) colon cancer cells: We examined EMT markers in 5FU sensitive (parent) and 5FU resistant (5FUR) HCT116 colon cancer cell lines. […] The reciprocal expression of these molecules are hallmarks of EMT signature. Next, we examined whether treatment with UroA/UAS03 can reverse these patterns in 5FUR cells. […] One of the mechanisms by which cancer cells acquire chemoresistant phenotype is by the induction of drug transporters such as Multidrug resistance-associated protein 2 (MRP2), ATP-binding cassette (ABC) drug efflux transporter proteins, BCRP and P-gycoprotein (P-gp).

C57BL/6 mice = assay: In vivo Evans Blue permeability assay (LPS); set-up: species or system mouse; conditions: LPS 100 μg i.p.; for LPS-induced TNF-α levels in serum and BAL fluid: 20 mg/kg; for tissue accumulation of Evans Blue (lung and liver): 20 mg/kg after 1 h and 18 h
Procedure: Acute intoxication of alcohol can induce microvasculature leakage as well as direct exposure to endothelium leads to disruption of endothelial integrity. […] In addition, increased endothelial permeability enhances the extravasation of immune cells into liver leading to increased inflammation. To examine the effect of UroA/UAS03 on endothelial cell permeability, we utilized in vivo Evans Blue permeability assay. Briefly, C57BL/6 mice (n=4/group) were given LPS (100 μg) i.p. followed by treatment with UAS03 or UroA (20 mg/kg) after 1 h and 18 h. Evans blue (i.v.) was given to mice (24 h post LPS treatment) and 30 min later mice were euthanized and the Evans Blue from lung and liver tissues was extracted using formamide. The levels of Evans Blue was determined by OD at 620 nm. […] To evaluate direct impact of UroA or UAS03 on endothelial barrier function, we used in vivo Miles assay to test blood vessel permeability. We used vascular endothelial growth factor (VEGF) as vasodilator. In this assay, C57BL/6 mice (n=3 per group) were given vehicle or UroA or UAS03 (20 mg/kg; oral gavage). After 3 h, Evans blue (100 μL of 1% solution) was administered i.v. followed by intra-dermal administration of VEGF (2.5 ng/mouse) or PBS (control). After 30 min, mice were euthanized and the levels of Evans Blue in skin tissue surrounding the injection site was extracted and estimated as described previously (FIG. 36C). […] To understand molecular mechanisms of UroA/UAS03 mediated endothelial barrier function, we tested the effects of these compounds in Human Umbilical Vein Endothelial Cells (HUVECs). Endotoxins or inflammatory mediators are responsible for decreasing the cell-cell and cell-matrix adhesion leading to increased barrier gaps and permeability. The VE-Cadherin (CDH5), an adherins junction (AJ) protein, can maintain the integrity of endothelial junctions through homotypic interactions with adjacent cell.

Row | SMILES | barrier function (FITC-dextran leakage) in Nrf2^−/− mice (Nrf2^−/− mice) | body weight loss and colon shortening in Nrf2^−/− mice (Nrf2^−/− mice) | serum IL-6 and TNF-α levels in Nrf2^−/− mice (Nrf2^−/− mice) | EMT markers ZO-1, E-Cadherin, Snail, β-catenin (5FUR HCT116 cells) | LPS-induced TNF-α levels in serum and BAL fluid (C57BL/6 mice) | tissue accumulation of Evans Blue (lung and liver) (C57BL/6 mice) | expression of E-cadherin (5FUR HCT116 cells; colon cancer cell lines)
1 | Oc1ccc2c(c1)COc1cc(O)ccc1-2 [UAS03, 6H-benzo[c]chromene-3,8-diol] | did not enhance barrier function | did not appear to restore body weight loss | partially reduced | upregulated ZO-1, E-Cadherin, and down regulated Snail and β-catenin | reduced LPS-induced TNF-α levels | reduced tissue accumulation of Evans Blue | –
2 | O=c1oc2cc(O)ccc2c2ccc(O)cc12 [UroA, 3,8-dihydroxy-6H-dibenzo[b,d]pyran-6-one] | did not enhance barrier function | did not appear to restore body weight loss | partially reduced | upregulated ZO-1, E-Cadherin, and down regulated Snail and β-catenin | reduced LPS-induced TNF-α levels | reduced tissue accumulation of Evans Blue | enhanced the expression of E-cadherin
